The source of these data is patent US4652581A, “Tetrahydroindole derivative as medicament for cerebral apoplexy” (Grelan Pharmaceutical Co., Ltd., priority 1983, dated 1987).

The structures appear in SMILES notation. Like-named read-outs stand apart in the source and are kept apart here.

Series [1] concerns hemorrhagic infarction (rat cerebral infarction model). Nature of the series: Inhibition of hemorrhagic infarction in cerebral infarction model, ISI orally administered (Test Example 1B). The series is classed as in vivo, Sprague Dowley male rats. Conditions: oral, twice daily. Here is the method:
(§1) (A) A cerebral infarction model was constructed by the following procedure. The bilateral common carotid arteries of Sprague Dowley male rats (body weights 300 to 350 g) in which one of the vertebral arteries was occluded by electrocauterization in accordance with the method of W. Pulsinelli et al (Stroke 10, 267, 1979) were uniformly occluded and made repatent, using clamps, at an interval of 1 hour for the first cycle and thereafter at 30-minute intervals for a total of 4 cycles.
The isolated brains were fixed in 10% formalin. For the assessment of hemorrhagic infarction, paraffin-embedded specimens prepared from three different sections passing through the mid-point between the anterior portion of the frontal lobe and the optic chiasm, the optic chiasm and the posterior portion of the mamillary body were used after H.E. stain.
(B) In the system using the above-mentioned cerebral infarction model, 0.25 ml/100 g body weight of suspension of the test drug ISI in 5% sodium alginate was orally administrated (dose of ISI: 30 mg/kg). To control animals, 0.25 ml/100 g body weight of 5% sodium alginate was orally administered. The administration schedule was twice daily for both groups.
The brains submitted to the study were subjected to the same treatment as above, and assessments were made on paraffin-embedded specimens.

Series [2] relates to cerebral apoplexy (stroke-prone spontaneously hypertensive rats). Nature of the series: Effect against cerebral apoplexy in NaCl-loaded stroke-prone spontaneously hypertensive rats (Test Example 2). The series is classed as in vivo. From the text: Stroke-prone spontaneously hypertensive rats [K. Okamoto et al., Circulation Res. suppl. 34 & 35, 143 (1974)]of 10 weeks aged were fed, in conventional manner, with a 1 weight % aqueous solution of sodium chloride as drinking water [H. Ikeda et al., Europ. J. Pharmacol. 53, 173 (1979)]being employed.
Animals were subjected to periodical observation, three times a day, until the symptom of cerebral apoplexy was manifested in all the animals of the control group. The difference between the control group and the test group in the ranking of the symtoms of cerebral apoplexy manifested was subjected to rank sum test.
In the test group, each of the animals was orally treated every day with ISI dissolved in 1% gum-arabica solution so that the concentration may become 0.06 weight % at a dose of 0.5 ml/100 g body weight twice a day, starting with the sodium chloride loading. In the control group, each of the animals was treated with 1% gum-arabica solution at a dose of 0.5 ml/100 g body weight in a manner similar to that in the test group.
The animals in which the symptom of apoplexy was manifested, after being anesthetized, was treated with intravenous injection of 1% Evans Blue (dosage: 1 ml/kg). After sacrifice by bloodletting, hemorrhage and extravascular extravasation of the dye in the brain and the spinal cord was observed.
With paralysis of the limbs, stereotyped behaviour, an extreme loss of
those animals were counted as those suffering from C.A.: Excitement,
Hyperirritability, Depression, Epileptic symptom, Hemiplegia, Sudden

A short description of series [3]: Acute toxicity (LD50 in mice). Particulars: mouse, in vivo.
Series [4] deals with hemorrhagic infarction (rat cerebral infarction model). Briefly: Inhibition of hemorrhagic infarction in cerebral infarction model, ISI injection (Test Example 1A). The series is classed as in vivo, Sprague Dowley male rats. Conditions: intraperitoneal. Here is the method:
as §1
After the final establishment of repatency in this test model and on the second day and onwards, 1 ml/100 g body weight of Glyceol ® Injection [a preparation containing 10 weight % of glycerol, the trademark of Chugai Pharmaceutical Co., Ltd., Japan] was intraperitoneally administered twice daily. The test drug ISI was dissolved in Glyceol ® Injection to a concentration of 0.08 weight % and administered in the same manner as Glyceol ® Injection.
In a disease model such as the one used in this experiment, death of animals occurs in many cases as an infarction leads to cerebral edema which compresses the brain stem. Therefore, for the purpose of preventing death due to this cause and ensuring a smooth performance of the experiment, the animals were treated with Glyceol ® Injection which has a relieving effect on cerebral edema.
The isolated brains were fixed in 10% formalin. […]

Usually LD50 stands for the dose expected to kill half of the subjects tested. Regarding `CC(C)N1CC(O)C2=CC(=NNC(N)=O)C(=O)C=C21` (centres unmarked) [ISI, 1-isopropyl-3-hydroxy-5-semicarbazono-6-oxo-2,3,5,6-tetrahydroindole], the “Number of cases of hemorrhagic infarction” value was 9/41 in series [1] (30 mg/kg in 5% sodium alginate, control (sodium alginate) 18/43) and 1/19 in series [4] (0.08% ISI in Glyceol injection, 1 ml/100 g, twice daily, up to 7 days, control (Glyceol injection) 6/20). For the same molecule, the “inhibitory effect on cerebral infarction (significance versus control)” value in series [1] (30 mg/kg, vs control group) is reported as “inhibitory effect on cerebral infarction was obtained in the ISI group at the significance level of 5%”. In addition, the “Number of animals suffering from C.A., Total” value in series [2] (ISI 3.0 mg/kg, oral twice a day, total, days 20-42 after NaCl loading, control 10/10) is on record as 5/10. Further, the “Number of animals suffering from C.A.” value in series [2] (ISI 3.0 mg/kg, 20 days after NaCl loading, control 0) was determined as 1; in series [2] (ISI 3.0 mg/kg, 21 days after NaCl loading, control 1), 0; in series [2] (ISI 3.0 mg/kg, 23 days after NaCl loading, control 1), 0; in series [2] (ISI 3.0 mg/kg, 26 days after NaCl loading, control 1), 0; in series [2] (ISI 3.0 mg/kg, 32 days after NaCl loading, control 1), 0; in series [2] (ISI 3.0 mg/kg, 33 days after NaCl loading, control 1) it was 1. In addition, the “Number of animals suffering from C.A.” value amounted to 0 in series [2] (ISI 3.0 mg/kg, 34 days after NaCl loading, control 1); 2 in series [2] (ISI 3.0 mg/kg, 37 days after NaCl loading, control 0); 0 in series [2] (ISI 3.0 mg/kg, 39 days after NaCl loading, control 1); 0 in series [2] (ISI 3.0 mg/kg, 40 days after NaCl loading, control 1); 1 in series [2] (ISI 3.0 mg/kg, 41 days after NaCl loading, control 0); 0 in series [2] (ISI 3.0 mg/kg, 42 days after NaCl loading, control 2). Also, in series [2] (oral ISI twice a day, Mann-Whitrey's U-test), the “effect of ISI against cerebral apoplexy (significance versus control)” value is given as 5% significant difference. Further, the LD50 in series [3] (intravenous, read-out: Acute toxicity LD50, intravenous) is 350 mg/kg; in series [3] (oral, read-out: Acute toxicity LD50, oral) it was ≥ 10000 mg/kg. The “inhibitory effect on hemorrhagic infarction (significance versus control)” value in series [4] (ISI in Glyceol injection vs control group) is recorded as “inhibitory effect on hemorrhagic infarction was obtained in the ISI group at the significance level of 5%”.
